According to the supplement of paper PMC10331698:
± gives the standard deviation of the averaged measurements.

Key:
Experiment in all cases: level (log10 ratio to DMSO vehicle control); higher = higher biomarker level / cell amount than vehicle control
Conditions in all cases: in DMSO
[1] = compound: C=C(C)C(=O)OCC(F)(F)C(F)(F)C(F)(F)C(F)(F)C(F)(F)C(F)(F)C(F)(F)F
Protocol: (§1)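 BioMAP Diversity Plus panel of 12 human primary cell co-culture systems (3C, 4H, LPS, SAg, BT, BF4T, BE3C, CASM3C, HDF3CGF, KF3CT, MyoF, Mphg). Compounds were added 1 h before stimulation and left for 24 h (MyoF 48 h; BT 72 h for soluble read-outs or 6 d for IgG). Biomarkers were read by ELISA, cytotoxicity by SRB, PBMC viability and proliferation by Alamar Blue. Each well value was divided by the mean of 8 DMSO control wells on the same plate and log10 transformed; duplicate blinded samples were tested at 4 concentrations.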

[2] = compound: CNS(=O)(=O)C(F)(F)C(F)(F)C(F)(F)C(F)(F)C(F)(F)C(F)(F)C(F)(F)C(F)(F)F [N-Methylperfluorooctanesulfonamide]
Protocol: as §1

[3] = compound: FC(F)(F)C(F)(F)C(F)(F)C(F)(F)C(F)(F)C(F)(F)C(F)(F)CCI [1-Iodo-1H,1H,2H,2H-perfluorononane]
Protocol: as §1

[4] = compound: O=C(O)C(F)(F)C(F)(F)C(F)(F)C(F)(F)C(F)(F)C(F)(F)C(F)(F)C(F)(F)C(F)(F)C(F)(F)C(F)(F)C(F)(F)C(F)(F)F [Perfluorotetradecanoic acid]
Protocol: as §1

[5] = compound: O=C(O)C(F)(F)OC(F)(F)C(F)(F)OC(F)(F)C(F)(F)C(F)(F)C(F)(F)F [Perfluoro-3,6-dioxadecanoic acid]
Protocol: as §1

[6] = compound: O=C(O)CCC(F)(F)C(F)(F)C(F)(F)C(F)(F)C(F)(F)F [2H,2H,3H,3H-Perfluorooctanoic acid]
Protocol: as §1

[7] = compound: OCC(F)(F)C(F)(F)C(F)(F)C(F)(F)C(F)(F)C(F)F [1H,1H,7H-Dodecafluoro-1-heptanol]
Protocol: as §1

Row | Test System | level (log10) ([1]; 6700 nM) | level (log10) ([1]; 20000 nM) | level (log10) ([2]; 6700 nM) | level (log10) ([2]; 20000 nM) | level (log10) ([2]; 60000 nM) | level (log10) ([3]; 6700 nM) | level (log10) ([3]; 20000 nM) | level (log10) ([4]; 6700 nM) | level (log10) ([4]; 20000 nM) | level (log10) ([5]; 6700 nM) | level (log10) ([5]; 20000 nM) | level (log10) ([5]; 60000 nM) | level (log10) ([6]; 6700 nM) | level (log10) ([6]; 20000 nM) | level (log10) ([6]; 60000 nM) | level (log10) ([7]; 6700 nM) | level (log10) ([7]; 20000 nM) | level (log10) ([7]; 60000 nM)
1 | 3C:CD87/uPAR | -0.0235 ± 0.054 | -0.015 ± 0.048 | -0.0125 ± 0.059 | -0.052 ± 0.011 | -0.0055 ± 0.032 | 0.0105 ± 0.019 | 0.0225 ± 0.016 | 0.032 ± 0.081 | 0.0405 ± 0.073 | 0.0065 ± 0.013 | -0.0145 ± 0.011 | -0.083 ± 0.058 | -0.0155 ± 0.043 | -0.0055 ± 0.016 | -0.021 ± 0.023 | 0.023 ± 0.0028 | 0.002 ± 0.0099 | -0.0045 ± 0.012
2 | 3C:CXCL8/IL-8 | -0.0085 ± 0.032 | 0.03 ± 0.014 | -0.0035 ± 0.0078 | 0.0575 ± 0.012 | 0.064 ± 0.0028 | 0.0085 ± 0.011 | 0.0165 ± 0.005 | -0.0045 ± 0.032 | 0.0485 ± 0.076 | -0.006 | -0.0025 ± 0.0064 | 0.0305 ± 0.013 | -0.032 ± 0.075 | 0.005 ± 0.0042 | 0.0265 ± 0.0092 | 0.0125 ± 0.032 | 0.0115 ± 0.021 | 0.0265 ± 0.0064
3 | 3C:CXCL9/MIG | -0.001 ± 0.017 | 0.015 ± 0.0099 | 0.001 ± 0.0014 | -0.0075 ± 0.011 | 0.022 ± 0.0057 | 0.002 ± 0.0042 | 0.007 ± 0.013 | -0.0045 ± 0.0035 | 0.0015 ± 0.0021 | -0.015 ± 0.02 | -0.0185 ± 0.019 | -0.002 ± 0.017 | -0.006 ± 0.013 | -0.007 ± 0.027 | -0.0075 ± 0.021 | 0.0065 ± 0.0078 | -0.0005 ± 0.015 | -0.0015 ± 0.0021
4 | 3C:HLA-DR | 0.0085 ± 0.011 | -0.0005 ± 0.019 | -0.0605 ± 0.012 | -0.102 ± 0.016 | -0.072 ± 0.028 | -0.001 ± 0.017 | 0.0155 ± 0.025 | -0.028 ± 0.03 | 0.0025 ± 0.037 | 0.0345 ± 0.04 | 0.021 ± 0.044 | 0.016 ± 0.071 | -0.0085 ± 0.00071 | -0.019 ± 0.023 | -0.001 ± 0.0071 | 0.008 ± 0.018 | -0.0055 ± 0.016 | -0.0105 ± 0.013
5 | 3C:Proliferation | -0.0365 ± 0.039 | -0.0595 ± 0.037 | -0.024 ± 0.02 | -0.125 ± 0.041 | -0.338 ± 0.16 | -0.019 ± 0.0085 | -0.027 ± 0.0057 | -0.306 ± 0.046 | -0.329 ± 0.15 | -0.0105 ± 0.0035 | 0.0325 ± 0.022 | -0.369 ± 0.13 | -0.0415 ± 0.022 | -0.038 ± 0.033 | -0.007 ± 0.0014 | -0.0365 ± 0.091 | -0.0885 ± 0.07 | -0.034 ± 0.045
6 | 3C:SRB | 0.0095 ± 0.015 | -0.0105 ± 0.022 | 0.0145 ± 0.022 | -0.031 ± 0.0028 | -0.0675 ± 0.028 | 0.0125 ± 0.015 | 0.0295 ± 0.03 | -0.015 ± 0.0028 | -0.0165 ± 0.012 | -0.016 ± 0.0071 | -0.0055 ± 0.019 | -0.149 ± 0.074 | -0.002 | -0.0085 ± 0.0078 | -0.009 ± 0.0085 | -0.005 ± 0.0071 | -0.006 ± 0.0071 | -0.0025 ± 0.00071
7 | 4H:CCL2/MCP-1 | -0.0415 ± 0.0092 | -0.005 ± 0.061 | 0.002 ± 0.017 | -0.064 ± 0.017 | -0.103 ± 0.027 | -0.0175 ± 0.019 | 0.0395 ± 0.1 | -0.031 ± 0.0057 | 0.0115 ± 0.019 | -0.0225 ± 0.0092 | -0.0425 ± 0.011 | -0.093 ± 0.14 | 0.009 ± 0.0042 | -0.008 ± 0.0057 | 0.0025 ± 0.0064 | -0.0365 ± 0.016 | -0.028 ± 0.0085 | 0.0135 ± 0.093
8 | 4H:CCL26/Eotaxin-3 | 0.0385 ± 0.043 | 0.0315 ± 0.047 | -0.0005 ± 0.018 | -0.0415 ± 0.032 | -0.0675 ± 0.025 | 0.018 ± 0.0057 | -0.004 ± 0.028 | -0.0595 ± 0.019 | -0.0575 ± 0.047 | 0.0145 ± 0.005 | -0.0035 ± 0.039 | 0.032 ± 0.048 | 0.032 ± 0.017 | 0.0095 ± 0.016 | 0.0125 ± 0.015 | -0.0075 ± 0.0078 | -0.023 ± 0.0042 | -0.0155 ± 0.022
9 | 4H:CD62P/P-selectin | -0.0205 ± 0.076 | -0.0315 ± 0.063 | 0.0265 ± 0.011 | -0.0345 ± 0.011 | -0.0685 ± 0.0092 | 0.0005 ± 0.037 | -0.0185 ± 0.06 | 0.0015 ± 0.011 | 0.0055 ± 0.021 | 0.015 ± 0.09 | 0.0205 ± 0.066 | 0.0165 ± 0.013 | 0.005 ± 0.048 | -0.041 ± 0.073 | 0.002 ± 0.034 | -0.003 ± 0.078 | 0.051 ± 0.067 | 0.032 ± 0.016
10 | 4H:CD87/uPAR | -0.019 ± 0.025 | -0.0015 ± 0.028 | -0.012 ± 0.12 | -0.0565 ± 0.071 | -0.046 ± 0.044 | 0.0135 ± 0.00071 | 0.0025 ± 0.026 | -0.0495 ± 0.097 | -0.0345 ± 0.14 | -0.004 ± 0.0099 | -0.004 ± 0.0085 | -0.0175 ± 0.037 | -0.008 ± 0.04 | -0.0065 ± 0.03 | -0.062 ± 0.037 | 0.016 ± 0.014 | 0.001 ± 0.014 | -0.019 ± 0.031
11 | 4H:CD106/VCAM-1 | -0.0205 ± 0.00071 | 0.0005 ± 0.021 | 0 ± 0.0014 | 0.015 ± 0.0042 | -0.0435 ± 0.032 | -0.003 ± 0.027 | -0.0585 ± 0.083 | -0.0805 ± 0.037 | -0.0775 ± 0.0078 | -0.0095 ± 0.018 | -0.0195 ± 0.022 | -0.039 ± 0.0099 | -0.0135 ± 0.0092 | -0.0325 ± 0.026 | -0.0405 ± 0.029 | 0.009 ± 0.034 | -0.016 ± 0.0085 | -0.0125 ± 0.0092
12 | 4H:SRB | 0.0005 ± 0.029 | -0.0035 ± 0.018 | -0.0045 ± 0.0092 | -0.041 ± 0.0014 | -0.0635 ± 0.054 | 0.0165 ± 0.0092 | 0.024 ± 0.024 | -0.014 ± 0.028 | -0.0155 ± 0.063 | -0.005 ± 0.018 | -0.002 ± 0.0057 | -0.065 ± 0.041 | -0.004 ± 0.0099 | -0.0115 ± 0.016 | -0.001 ± 0.014 | -0.0055 ± 0.028 | -0.0215 ± 0.012 | -0.0075 ± 0.029
13 | 4H:VEGFR2 | 0.0165 ± 0.0064 | 0.0365 ± 0.05 | -0.0425 ± 0.032 | -0.096 ± 0.0085 | -0.0995 ± 0.00071 | -0.0015 ± 0.026 | 0.0225 ± 0.06 | 0.075 ± 0.11 | 0.084 ± 0.09 | -0.035 ± 0.065 | -0.0105 ± 0.035 | -0.0755 ± 0.036 | 0.008 ± 0.011 | 0.02 ± 0.017 | 0.0155 ± 0.03 | -0.011 ± 0.044 | 0.0075 ± 0.061 | 0.014 ± 0.03
14 | BE3C:CD54/ICAM-1 | 0.007 ± 0.0014 | 0.006 ± 0.0085 | 0.0055 ± 0.0021 | 0.0255 ± 0.0021 | 0.016 ± 0.0071 | 0.0115 ± 0.005 | -0.009 ± 0.016 | -0.003 ± 0.025 | 0.015 ± 0.062 | -0.0105 ± 0.0021 | -0.024 ± 0.013 | 0.008 ± 0.0057 | -0.0065 ± 0.0078 | -0.0085 ± 0.005 | -0.0155 ± 0.011 | 0.0205 ± 0.029 | 0.01 ± 0.027 | 0.0145 ± 0.012
